In patent US5175100A, “Stereospecific resolution by hydrolysis of esters of 2-arylpropionic acids by liver enzymes” (Rhone-Poulenc, Inc., priority 1991, dated 1992):

Legend:
Format in all cases: biochemical
[1] = test system: Liver acetone powder from Dog; assay: Hydrolysis of ketoprofen esters by dog liver acetone powder; settings: Dog powder, 0.2 millimole ester, procedure of Example 1
Description: (§1) A solution of 50 mg of ketoprofen methyl ester in 0.2 ml of ethanol was added to 10 mg of each of liver acetone powder from various animal sources (described in Table 1) in 5 ml of 0.1M potassium phosphate buffer (pH 7.0) After shaking at room temperature for 24 hours, the reaction mixtures were acidified to pH 2.0 with 6(N) HCl and extracted with 10 ml of ethyl acetate. A portion of the ethyl acetate extract was analyzed by HPLC on a Partisil 5 ODS-3 RAC column (9.4 mm×100 mm, Whatman) using a mixture of methanol and 10 mM ammonium dihydrogen phospate (9:1) and monitored by UV at 254 nm to determine the percentages of acid produced in the reaction.
(§2) To determine the percentage of R- and S-acid, a portion of the ethyl acetate extract was converted to the amide derivative of the acid produced with R(+)-1-phenylethylamine as follows. The ethyl acetate extract (5 ml) was dried over sodium sulfate, filtered and cooled to 0° C. To the cold solution was added 0.2 ml of N-methylmorpholine followed by 0.2 ml of isobutyl chloroformate. After gentle shaking at 0° C. for 10 minutes, 0.2 ml of R(+)-1-phenylethylamine was added and the shaking was continued at 0° C. for 5 minutes and at room temperature for another 5 minutes. The reaction mixture was washed successively with water (5 ml), 1(N) HCl (5 ml), and water (5 ml) to provide the amide derivative in ethyl acetate solution. The ethyl acetate solution of the amide derivative was then analyzed by HPLC on the same column and same solvent mixture but with a different composition, i.e., a ratio of 6:4, and monitored by UV to determine the percentages of R- acid and S-acids produced by hydrolysis. The enantiomeric excess (EE) is defined as the difference in percent between the percent R- acid and the percent S-acid, the higher enantiomer being reported in the parenthesis in Table I.
(§3) Several esters of ketoprofen (0.2 millimole) with various alkyl groups of varying chain length were hydrolyzed using liver acetone powders from bovine, calf and dog by the procedure described in Example 1. The reaction mixtures were analyzed by the same procedures as described in Example 1 and the results obtained are summarized in Table II.

[2] = test system: Liver acetone powder from Calf; assay: Hydrolysis of ketoprofen esters by calf liver acetone powder; settings: Calf powder, 0.2 millimole ester, procedure of Example 1
Description: as §1, §2, §3

[3] = test system: Liver acetone powder from Bovine; assay: Hydrolysis of ketoprofen esters by bovine liver acetone powder; settings: Bovine powder, 0.2 millimole ester, procedure of Example 1
Description: as §1, §2, §3

Row | SMILES | EE(%) of R-Acid [1] [%] | Percent of Acid R-Acid [1] [%] | Percent of Acid S-Acid [1] [%] | EE(%) of R-Acid [2] [%] | Percent of Acid R-Acid [2] [%] | Percent of Acid S-Acid [2] [%] | EE(%) of R-Acid [3] [%] | Percent of Acid R-Acid [3] [%] | Percent of Acid S-Acid [3] [%]
1 | CCCCCCOC(=O)C(C)c1cccc(C(=O)c2ccccc2)c1 (stereo not drawn) [C-6] | 35.8 | 67.9 | 32.1 | 42.0 | 71.0 | 29.0 | 45.4 | 72.7 | 27.3
2 | CCCOC(=O)C(C)c1cccc(C(=O)c2ccccc2)c1 (stereo not drawn) [C-3] | 68.2 | 84.1 | 15.9 | 38.2 | 69.1 | 30.9 | 41.4 | 70.7 | 29.3
3 | CCCCOC(=O)C(C)c1cccc(C(=O)c2ccccc2)c1 (stereo not drawn) [C-4] | 68.8 | 84.4 | 15.6 | 38.2 | 65.6 | 34.4 | 33.4 | 66.7 | 33.3
4 | CCOC(=O)C(C)c1cccc(C(=O)c2ccccc2)c1 (stereo not drawn) [C-2] | 65.0 | 82.5 | 17.5 | 39.2 | 69.6 | 30.4 | 40.6 | 70.3 | 29.7
5 | CCCCCCCCOC(=O)C(C)c1cccc(C(=O)c2ccccc2)c1 (stereo not drawn) [C-8] | 41.4 | 70.7 | 29.3 | 24.2 | 62.1 | 37.9 | 55.8 | 77.9 | 22.1
